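Where inhibition never reached the appropriate level, the endpoint shown equals the highest concentration tested. Otherwise, values were interpolated linearly from a five-concentration, 48-hour dose response in 96-well plates. TGI is the concentration that stops growth completely.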
How the values were obtained:
Assay in all cases: NCI tumour cell line growth inhibition, 48 h
BT-549 breast = test system: BT-549 breast
SNB-75 CNS = test system: SNB-75 CNS
HL-60(TB) leukemia = test system: HL-60(TB) leukemia
SK-MEL-2 melanoma = test system: SK-MEL-2 melanoma
IGROV1 ovarian = test system: IGROV1 ovarian
KM12 colon = test system: KM12 colon
SK-OV-3 ovarian = test system: SK-OV-3 ovarian
HCT-116 colon = test system: HCT-116 colon
MCF7 breast = test system: MCF7 breast
NCI-H23 lung = test system: NCI-H23 lung
SF-268 CNS = test system: SF-268 CNS
UACC-62 melanoma = test system: UACC-62 melanoma
SK-MEL-28 melanoma = test system: SK-MEL-28 melanoma
NCI-H522 lung = test system: NCI-H522 lung
SF-295 CNS = test system: SF-295 CNS
DU-145 prostate = test system: DU-145 prostate
COLO 205 colon = test system: COLO 205 colon
CAKI-1 renal = test system: CAKI-1 renal
RPMI-8226 leukemia = test system: RPMI-8226 leukemia
OVCAR-5 ovarian = test system: OVCAR-5 ovarian
OVCAR-8 ovarian = test system: OVCAR-8 ovarian
HS 578T breast = test system: HS 578T breast
MDA-N = test system: MDA-N
M14 melanoma = test system: M14 melanoma
UO-31 renal = test system: UO-31 renal
OVCAR-3 ovarian = test system: OVCAR-3 ovarian
786-0 renal = test system: 786-0 renal
K-562 leukemia = test system: K-562 leukemia
SNB-19 CNS = test system: SNB-19 CNS
MOLT-4 leukemia = test system: MOLT-4 leukemia
ACHN renal = test system: ACHN renal
NCI/ADR-RES ovarian = test system: NCI/ADR-RES ovarian
LOX IMVI melanoma = test system: LOX IMVI melanoma
SN12C renal = test system: SN12C renal
HT29 colon = test system: HT29 colon
PC-3 prostate = test system: PC-3 prostate
SW-620 colon = test system: SW-620 colon
SR leukemia = test system: SR leukemia
MDA-MB-435 = test system: MDA-MB-435
HCT-15 colon = test system: HCT-15 colon
EKVX NSCLC = test system: EKVX NSCLC
RXF 393 renal = test system: RXF 393 renal
A498 renal = test system: A498 renal
SF-539 CNS = test system: SF-539 CNS
SK-MEL-5 melanoma = test system: SK-MEL-5 melanoma
HOP-92 NSCLC = test system: HOP-92 NSCLC
NCI-H226 lung = test system: NCI-H226 lung
CCRF-CEM leukemia = test system: CCRF-CEM leukemia
T-47D breast = test system: T-47D breast
MALME-3M melanoma = test system: MALME-3M melanoma
OVCAR-4 ovarian = test system: OVCAR-4 ovarian
A549 NSCLC = test system: A549 NSCLC
TK-10 renal = test system: TK-10 renal
NCI-H460 lung = test system: NCI-H460 lung
HOP-62 NSCLC = test system: HOP-62 NSCLC
HCC-2998 colon = test system: HCC-2998 colon
U251 CNS = test system: U251 CNS
UACC-257 melanoma = test system: UACC-257 melanoma
MDA-MB-231 breast = test system: MDA-MB-231 breast

SMILES: COc1cc(/C=N/NC(=O)c2ccc(NC(C)=O)cc2OC)ccc1O
- TGI (BT-549 breast): > 100 µM
- TGI (SNB-75 CNS): 73 µM
- TGI (HL-60(TB) leukemia): > 100 µM
- TGI (SK-MEL-2 melanoma): 93.3 µM
- TGI (IGROV1 ovarian): > 100 µM
- TGI (KM12 colon): > 100 µM
- TGI (SK-OV-3 ovarian): > 100 µM
- TGI (HCT-116 colon): > 100 µM
- TGI (MCF7 breast): > 100 µM
- TGI (NCI-H23 lung): > 100 µM
- TGI (SF-268 CNS): > 100 µM
- TGI (UACC-62 melanoma): > 100 µM
- TGI (SK-MEL-28 melanoma): > 100 µM
- TGI (NCI-H522 lung): > 100 µM
- TGI (SF-295 CNS): > 100 µM
- TGI (DU-145 prostate): > 100 µM
- TGI (COLO 205 colon): > 100 µM
- TGI (CAKI-1 renal): > 100 µM
- TGI (RPMI-8226 leukemia): > 100 µM
- TGI (OVCAR-5 ovarian): > 100 µM
- TGI (OVCAR-8 ovarian): > 100 µM
- TGI (HS 578T breast): 81.6 µM
- TGI (MDA-N): > 100 µM
- TGI (M14 melanoma): > 100 µM
- TGI (UO-31 renal): > 100 µM
- TGI (OVCAR-3 ovarian): > 100 µM
- TGI (786-0 renal): > 100 µM
- TGI (K-562 leukemia): > 100 µM
- TGI (SNB-19 CNS): > 100 µM
- TGI (MOLT-4 leukemia): > 100 µM
- TGI (ACHN renal): > 100 µM
- TGI (NCI/ADR-RES ovarian): > 100 µM
- TGI (LOX IMVI melanoma): > 100 µM
- TGI (SN12C renal): > 100 µM
- TGI (HT29 colon): > 100 µM
- TGI (PC-3 prostate): > 100 µM
- TGI (SW-620 colon): > 100 µM
- TGI (SR leukemia): > 100 µM
- TGI (MDA-MB-435): > 100 µM
- TGI (HCT-15 colon): > 100 µM
- TGI (EKVX NSCLC): > 100 µM
- TGI (RXF 393 renal): > 100 µM
- TGI (A498 renal): > 100 µM
- TGI (SF-539 CNS): > 100 µM
- TGI (SK-MEL-5 melanoma): > 100 µM
- TGI (HOP-92 NSCLC): 54.3 µM
- TGI (NCI-H226 lung): > 100 µM
- TGI (CCRF-CEM leukemia): > 100 µM
- TGI (T-47D breast): > 100 µM
- TGI (MALME-3M melanoma): > 100 µM
- TGI (OVCAR-4 ovarian): > 100 µM
- TGI (A549 NSCLC): > 100 µM

SMILES: O=c1c2sc3nc(NCCN4CCCCC4)ncc3c2ncn1-c1ccccc1
- TGI (BT-549 breast): > 100 µM
- TGI (SNB-75 CNS): > 100 µM
- TGI (SK-MEL-2 melanoma): > 100 µM
- TGI (IGROV1 ovarian): > 100 µM
- TGI (KM12 colon): > 100 µM
- TGI (SK-OV-3 ovarian): > 100 µM
- TGI (TK-10 renal): > 100 µM
- TGI (HCT-116 colon): > 100 µM
- TGI (NCI-H460 lung): > 100 µM
- TGI (NCI-H23 lung): > 100 µM
- TGI (SF-268 CNS): > 100 µM
- TGI (UACC-62 melanoma): > 100 µM
- TGI (SK-MEL-28 melanoma): > 100 µM
- TGI (NCI-H522 lung): > 100 µM
- TGI (SF-295 CNS): > 100 µM
- TGI (DU-145 prostate): > 100 µM
- TGI (COLO 205 colon): > 100 µM
- TGI (CAKI-1 renal): > 100 µM
- TGI (HOP-62 NSCLC): > 100 µM
- TGI (RPMI-8226 leukemia): > 100 µM
- TGI (OVCAR-5 ovarian): > 100 µM
- TGI (OVCAR-8 ovarian): > 100 µM
- TGI (HS 578T breast): > 100 µM
- TGI (MDA-N): > 100 µM
- TGI (M14 melanoma): 39.2 µM
- TGI (UO-31 renal): 49.9 µM
- TGI (OVCAR-3 ovarian): > 100 µM
- TGI (786-0 renal): > 100 µM
- TGI (K-562 leukemia): > 100 µM
- TGI (SNB-19 CNS): > 100 µM
- TGI (MOLT-4 leukemia): > 100 µM
- TGI (HCC-2998 colon): > 100 µM
- TGI (U251 CNS): > 100 µM
- TGI (ACHN renal): > 100 µM
- TGI (NCI/ADR-RES ovarian): > 100 µM
- TGI (LOX IMVI melanoma): 41.9 µM
- TGI (SN12C renal): > 100 µM
- TGI (HT29 colon): > 100 µM
- TGI (PC-3 prostate): > 100 µM
- TGI (SW-620 colon): > 100 µM
- TGI (SR leukemia): > 100 µM
- TGI (MDA-MB-435): > 100 µM
- TGI (HCT-15 colon): > 100 µM
- TGI (RXF 393 renal): 84.4 µM
- TGI (A498 renal): > 100 µM
- TGI (SK-MEL-5 melanoma): 36.3 µM
- TGI (HOP-92 NSCLC): 95.5 µM
- TGI (NCI-H226 lung): > 100 µM
- TGI (CCRF-CEM leukemia): > 100 µM
- TGI (T-47D breast): > 100 µM
- TGI (MALME-3M melanoma): 58.4 µM
- TGI (OVCAR-4 ovarian): > 100 µM
- TGI (UACC-257 melanoma): > 100 µM
- TGI (MDA-MB-231 breast): > 100 µM
- TGI (A549 NSCLC): > 100 µM

SMILES: CC(C)=CCC[C@@H](C)C1=C(O)C(c2c(I)c(=O)n(C)c(=O)n2C)=C(C)C(=O)C1=O
- TGI (BT-549 breast): > 100 µM
- TGI (SNB-75 CNS): > 100 µM
- TGI (HL-60(TB) leukemia): > 100 µM
- TGI (SK-MEL-2 melanoma): > 100 µM
- TGI (IGROV1 ovarian): > 100 µM
- TGI (KM12 colon): > 100 µM
- TGI (SK-OV-3 ovarian): > 100 µM
- TGI (TK-10 renal): > 100 µM
- TGI (HCT-116 colon): > 100 µM
- TGI (MCF7 breast): > 100 µM
- TGI (NCI-H460 lung): > 100 µM
- TGI (NCI-H23 lung): > 100 µM
- TGI (SF-268 CNS): > 100 µM
- TGI (SK-MEL-28 melanoma): > 100 µM
- TGI (SF-295 CNS): > 100 µM
- TGI (DU-145 prostate): > 100 µM
- TGI (COLO 205 colon): > 100 µM
- TGI (CAKI-1 renal): > 100 µM
- TGI (HOP-62 NSCLC): > 100 µM
- TGI (RPMI-8226 leukemia): > 100 µM
- TGI (OVCAR-5 ovarian): > 100 µM
- TGI (OVCAR-8 ovarian): > 100 µM
- TGI (HS 578T breast): > 100 µM
- TGI (MDA-N): > 100 µM
- TGI (M14 melanoma): > 100 µM
- TGI (UO-31 renal): > 100 µM
- TGI (OVCAR-3 ovarian): > 100 µM
- TGI (786-0 renal): > 100 µM
- TGI (K-562 leukemia): > 100 µM
- TGI (SNB-19 CNS): > 100 µM
- TGI (MOLT-4 leukemia): > 100 µM
- TGI (HCC-2998 colon): > 100 µM
- TGI (ACHN renal): > 100 µM
- TGI (NCI/ADR-RES ovarian): > 100 µM
- TGI (LOX IMVI melanoma): > 100 µM
- TGI (SN12C renal): > 100 µM
- TGI (HT29 colon): > 100 µM
- TGI (PC-3 prostate): > 100 µM
- TGI (SW-620 colon): > 100 µM
- TGI (MDA-MB-435): > 100 µM
- TGI (HCT-15 colon): > 100 µM
- TGI (EKVX NSCLC): > 100 µM
- TGI (A498 renal): > 100 µM
- TGI (SF-539 CNS): > 100 µM
- TGI (HOP-92 NSCLC): > 100 µM
- TGI (NCI-H226 lung): > 100 µM
- TGI (CCRF-CEM leukemia): > 100 µM
- TGI (T-47D breast): > 100 µM
- TGI (MALME-3M melanoma): > 100 µM
- TGI (OVCAR-4 ovarian): > 100 µM
- TGI (UACC-257 melanoma): > 100 µM
- TGI (A549 NSCLC): > 100 µM

Source: PubChem BioAssay (NCI)
